Results taken from ChEMBL document CHEMBL1140182, “Modeling binding modes of alpha7 nicotinic acetylcholine receptor with ligands: the roles of Gln117 and other residues of the receptor in agonist binding” (J Med Chem, 2008).

What was measured:
[1] = molecular target: T1, Neuronal acetylcholine receptor subunit alpha-7 (Homo sapiens, UniProt P36544); assay: Displacement of [125I]alpha-bungarotoxin from alpha7 nAChR
[2] = molecular target: T1, Neuronal acetylcholine receptor subunit alpha-7; assay: Agonist activity at human cloned wild-type alpha7 nAChR expressed in Xenopus laevis oocytes assessed as channel opening by voltage clamp electrophysiology; assay type: functional, cell-based, Oocyte
[3] = Agonist activity at human cloned alpha7 nAChR Gln117Phe mutant expressed in Xenopus laevis oocytes assessed as channel opening by voltage clamp electrophysiology; assay type: functional, cell-based; conditions: Oocyte

T1 sequence (P36544 whole entry): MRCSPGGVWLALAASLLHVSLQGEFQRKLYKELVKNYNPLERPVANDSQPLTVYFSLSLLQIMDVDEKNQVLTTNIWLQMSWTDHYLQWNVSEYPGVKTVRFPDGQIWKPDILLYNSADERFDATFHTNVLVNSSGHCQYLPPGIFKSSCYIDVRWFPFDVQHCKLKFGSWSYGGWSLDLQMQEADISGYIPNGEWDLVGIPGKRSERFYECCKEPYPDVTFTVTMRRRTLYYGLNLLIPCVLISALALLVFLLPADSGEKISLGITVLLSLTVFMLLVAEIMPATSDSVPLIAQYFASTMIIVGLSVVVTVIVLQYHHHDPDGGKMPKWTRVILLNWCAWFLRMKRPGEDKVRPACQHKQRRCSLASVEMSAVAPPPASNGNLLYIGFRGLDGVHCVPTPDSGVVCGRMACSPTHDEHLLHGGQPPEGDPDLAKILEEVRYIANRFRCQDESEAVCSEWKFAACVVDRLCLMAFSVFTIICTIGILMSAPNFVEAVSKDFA

Row | Structure (SMILES) | Kd [1] [nM] | EC50 [2] [nM] | EC50 [3] [nM]
1 | O=C1NC[C@@]2(CN3CCC2CC3)O1 | 92 | 3600 | 22300
2 | CCN1C[C@@]2(CN3CCC2CC3)OC1=O | 690 | – | –
3 | COc1ccc(/C=C2\CCCN=C2c2cccnc2)c(OC)c1 [GTS-21] | 158 | – | –
